We go through 25 compounds from US8183239B2, “Substituted piperazines and piperidines as modulators of the neuropeptide Y2 receptor” (Janssen Pharmaceutica NV, priority 2005, dated 2012).

The target in one assay is T1, Y2 receptors (Homo sapiens, UniProt P49146).
T1 construct: endogenous in cells; host or cells: KAN-Ts cells (membranes)
T1 sequence (P49146 1-381): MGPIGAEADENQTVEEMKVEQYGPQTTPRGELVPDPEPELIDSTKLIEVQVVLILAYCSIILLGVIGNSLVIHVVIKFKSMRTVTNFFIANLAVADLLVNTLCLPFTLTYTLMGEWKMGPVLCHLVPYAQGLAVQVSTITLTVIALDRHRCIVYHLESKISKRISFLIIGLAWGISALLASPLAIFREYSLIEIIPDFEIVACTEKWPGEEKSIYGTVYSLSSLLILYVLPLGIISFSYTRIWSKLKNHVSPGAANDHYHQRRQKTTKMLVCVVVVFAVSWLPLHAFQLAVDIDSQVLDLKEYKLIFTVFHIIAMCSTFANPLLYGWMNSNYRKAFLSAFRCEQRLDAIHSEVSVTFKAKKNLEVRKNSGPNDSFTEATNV
Description: Radioligand binding assay ([125I]PYY, KAN-Ts cell membranes). Particulars: IC50 (nM), Table 1, [125I]PYY 80 pM, average of results. The procedure:
Radioligand Binding Assay
KAN-Ts endogenously expressing Y2 receptors were used for the radioligand binding assay. Cells were grown to confluence on 150 cm^2 tissue culture plates, washed with phosphate-buffered saline (PBS), and scraped into 50 mL tubes. After centrifugation, the supernatant was aspirated, and the pellets frozen and stored at −80° C. Thawed pellets were homogenized with a polytron tissue grinder for 15 sec in 20 mM Tris-HCl, 5 mM EDTA. The homogenate was centrifuged at 800×g for 5 min and the collected supernatant was recentrifuged at 25000×g for 25 min. The resulting pellet was resuspended in binding buffer (20 mM HEPES, 120 mM NaCl, 0.22 mM KH2PO4, 1.3 mM CaCl2, 0.8 mM MgSO4). Membranes were incubated with [^125I]PYY (80 pM) in the presence or absence of test compound for 1 h at rt. The reaction was stopped by filtration through GF/C filter plates pre-soaked in 0.3% polyethylenimine and subsequently washed with Tris 50 mM, 5 mM EDTA buffer. Plates were dried for 1 h in a 55° C. oven, scintillation fluid was added and the radioactivity was counted in a Packard TopCount. Specific binding to the NPY receptor subtypes was determined by radioactivity that was bound in the presence of […]. Each binding experiment was repeated three to eight times, each in duplicate. IC50 values (i.e. concentration of unlabelled peptide or antagonist required to compete for 50% of specific binding to the radioligand) were calculated using the GraphPad Prism software (GraphPad Software Inc., San Diego Calif.) with a fit to a sigmoidal dose response curve. Data for compounds tested are presented in Tables 1 and 2 as an average of results obtained.
`CCC(CC)C(=O)N(c1ccccc1)C1CCN(c2ccc(NC(=O)Nc3c(C)noc3C)cc2F)CC1` [Example 32, N-(1-{4-[3-(3,5-Dimethyl-isoxazol-4-yl)-ureido]-2-fluoro-phenyl}-piperidin-4-yl)-2-ethyl-N-phenyl-butyramide] showed an IC50 of 180 nM.
The same measure, in the same setting: as for `CCC(CC)C(=O)Nc1ccc(N2CCC(N(C(=O)C(CC)CC)c3ccccc3)CC2)c(F)c1` [Example 33, 2-Ethyl-N-{1-[4-(2-ethyl-butyrylamino)-2-fluoro-phenyl]-piperidin-4-yl}-N-phenyl-butyramide], the figure is 180 nM; as for `CCC(CC)C(=O)Nc1ccc(N2CCN(C(C(=O)OC)c3cccc(F)c3)CC2)c(F)c1` (stereo not shown) [Example 34, {4-[4-(2-Ethyl-butyrylamino)-2-fluoro-phenyl]-piperazin-1-yl}-(3-fluoro-phenyl)-acetic acid methyl ester], 40 nM.

The same assay, now with this note: Table 1, [125I]PYY 80 pM, average of results, read-out: IC50.
`CCNC(=O)C(c1ccccc1)N1CCN(c2ccc(NC(=O)NCc3ccc(F)cc3)cc2F)CC1` (stereo not shown) [Example 26, N-Ethyl-2-(4-{2-fluoro-4-[3-(4-fluoro-benzyl)-ureido]-phenyl}-piperazin-1-yl)-2-phenyl-acetamide]: the IC50 came to 2000 nM.
On the same count and under the same terms, as for `CCNC(=O)C(c1ccccc1)N1CCN(c2ccc(NC(=O)N[C@@H](C)c3ccc(F)cc3)cc2F)CC1` (stereo partly drawn) [Example 28, N-Ethyl-2-[4-(2-fluoro-4-{3-[(S)-1-(4-fluoro-phenyl)-ethyl]-ureido}-phenyl)-piperazin-1-yl]-2-phenyl-acetamide], the figure is 2900 nM; as for `CCN(CC)C(=O)C(c1ccccc1)N1CCN(c2ccc(NC(=O)[C@H]3CCOC3)cc2F)CC1` (stereo partly drawn) [Example 29, (S)-Tetrahydro-furan-3-carboxylic acid {4-[4-(diethylcarbamoyl-phenyl-methyl)-piperazin-1-yl]-3-fluoro-phenyl}-amide], 65 nM.
Still for that read-out and setting: next, `CCN(CC)C(=O)C(c1ccccc1)N1CCN(c2ccc(N(CC)C(=O)N(CC)c3c(C)noc3C)cc2F)CC1` (stereo not shown) [Example 30, 2-(4-{4-[3-(3,5-Dimethyl-isoxazol-4-yl)-1,3-diethyl-ureido]-2-fluoro-phenyl}-piperazin-1-yl)-N,N-diethyl-2-phenyl-acetamide]: 570 nM; `CCN(CC)C(=O)C(c1ccccc1)N1CCN(c2ccc(C(=O)NCc3c(C)noc3C)cc2F)CC1` (stereo not shown) [Example 31, 4-[4-(Diethylcarbamoyl-phenyl-methyl)-piperazin-1-yl]-N-(3,5-dimethyl-isoxazol-4-ylmethyl)-3-fluoro-benzamide]: 24 nM; `CCC(CC)C(=O)Nc1ccc(N2CCN(C(C(=O)N(CC)CC)c3cccc(F)c3)CC2)c(F)c1` (stereo not shown) [Example 35, N-(4-{4-[Diethylcarbamoyl-(3-fluoro-phenyl)-methyl]-piperazin-1-yl}-3-fluoro-phenyl)-2-ethyl-butyramide]: 33 nM.
Still for that read-out and setting: as for `CCC(CC)C(=O)Nc1ccc(N2CCN(C(C(=O)OC)c3ccc(C#N)cc3)CC2)c(F)c1` (stereo not shown) [Example 36, (4-Cyano-phenyl)-{4-[4-(2-ethyl-butyrylamino)-2-fluoro-phenyl]-piperazin-1-yl}-acetic acid methyl ester], the figure is 210 nM; as for `CCC(CC)C(=O)Nc1ccc(N2CCN(C(C(=O)OC)c3cccc(Cl)c3)CC2)c(F)c1` (stereo not shown) [Example 37, (3-Chloro-phenyl)-{4-[4-(2-ethyl-butyrylamino)-2-fluoro-phenyl]-piperazin-1-yl}-acetic acid methyl ester], 56 nM; as for `CCC(CC)C(=O)Nc1ccc(N2CCN(C(C(=O)OC)c3cccc(F)c3F)CC2)c(F)c1` (stereo not shown) [Example 38, (2,3-Difluoro-phenyl)-{4-[4-(2-ethyl-butyrylamino)-2-fluoro-phenyl]-piperazin-1-yl}-acetic acid methyl ester], 440 nM.
On to `COC(=O)C(c1ccccc1)N1CCN(c2ccc(NC(=O)c3ccccc3C)cc2Cl)CC1` (stereo not shown) [Example 39, {4-[2-Chloro-4-(2-methyl-benzoylamino)-phenyl]-piperazin-1-yl}-phenyl-acetic acid methyl ester], for which the IC50 is 800 nM.
Take `CCC(CC)C(=O)Nc1cc(F)c(N2CCN(C(C(=O)OC)c3ccccc3)CC2)c(F)c1` (stereo not shown) [Example 40, {4-[4-(2-Ethyl-butyrylamino)-2,6-difluoro-phenyl]-piperazin-1-yl}-phenyl-acetic acid methyl ester]: the IC50 was determined as 110 nM.
Same read-out and setting: next, `CCC(CC)C(=O)Nc1cc(Cl)c(N2CCN(C(C(=O)OC)c3ccccc3)CC2)c(Cl)c1` (stereo not shown) [Example 41, {4-[2,6-Dichloro-4-(2-ethyl-butyrylamino)-phenyl]-piperazin-1-yl}-phenyl-acetic acid methyl ester]: 77 nM.
On the same count and under the same terms, next, `CCNC(=O)C(c1ccccc1)N1CCN(c2ccc(NC(=O)C(CC)CC)c(F)c2)CC1` (stereo not shown) [Example 42, 2-Ethyl-N-{4-[4-(ethylcarbamoyl-phenyl-methyl)-piperazin-1-yl]-2-fluoro-phenyl}-butyramide]: 4830 nM.
The same measure, in the same setting: next, `CCNC(=O)C(c1ccccc1)C1CCN(c2ccc(NC(=O)C(CC)CC)cc2C#N)CC1` (stereo not shown) [Example 43, N-{3-Cyano-4-[4-(ethylcarbamoyl-phenyl-methyl)-piperidin-1-yl]-phenyl}-2-ethyl-butyramide]: 14 nM; `CCC(CC)C(=O)Nc1ccc(N2CCN(C(C(=O)OC)c3ccccc3)CC2)c(F)c1` (stereo not shown) [Example 44, {4-[4-(2-Ethyl-butyrylamino)-2-fluoro-phenyl]-piperazin-1-yl}-phenyl-acetic acid methyl ester]: 131 nM.
Regarding `COC(=O)C(c1ccccc1)N1CCN(c2ccc(NC(=O)C3Cc4ccccc43)cc2)CC1` (stereo not shown) [Example 45, (4-{4-[(Bicyclo[4.2.0]octa-1 (6),2,4-triene-7-carbonyl)-amino]-phenyl}-piperazin-1-yl)-phenyl-acetic acid methyl ester], the IC50 turned out to be 4000 nM.
Same read-out and setting: as for `COC(=O)C(c1ccccc1)N1CCN(c2ccc(NC(=O)c3ccccc3I)cc2)CC1` (stereo not shown) [Example 46, {4-[4-(2-Iodo-benzoylamino)-phenyl]-piperazin-1-yl}-phenyl-acetic acid methyl ester], the figure is 6000 nM; as for `COC(=O)C(c1ccccc1)N1CCN(c2ccc(NC(=O)c3ccccc3)cc2)CC1` (stereo not shown) [Example 47, [4-(4-Benzoylamino-phenyl)-piperazin-1-yl]-phenyl-acetic acid methyl ester], 10000 nM.
On the same count and under the same terms, as for `COC(=O)C(c1ccccc1)N1CCN(c2ccc(NC(=O)c3ccccc3C3CCCCC3)cc2)CC1` (stereo not shown) [Example 49, {4-[4-(2-Cyclohexyl-benzoylamino)-phenyl]-piperazin-1-yl}-phenyl-acetic acid methyl ester], the figure is 1300 nM; as for `COC(=O)C(c1ccccc1)N1CCN(c2ccc(NC(=O)c3ccccc3C)cc2)CC1` (stereo not shown) [Example 50, {4-[4-(2-Methyl-benzoylamino)-phenyl]-piperazin-1-yl}-phenyl-acetic acid methyl ester], 1800 nM.
On the same count and under the same terms, next, `CCc1ccccc1C(=O)Nc1ccc(N2CCN(C(C(=O)OC)c3ccccc3)CC2)cc1` (stereo not shown) [Example 51, {4-[4-(2-Ethyl-benzoylamino)-phenyl]-piperazin-1-yl}-phenyl-acetic acid methyl ester]: 1850 nM; `COC(=O)C(c1ccccc1)N1CCN(c2ccc(NC(=O)c3ccccc3C(C)C)cc2)CC1` (stereo not shown) [Example 52, {4-[4-(2-Isopropyl-benzoylamino)-phenyl]-piperazin-1-yl}-phenyl-acetic acid methyl ester]: 1400 nM.
